Data as given in patent US20220315621A1, “COMPOSITIONS AND METHODS FOR TREATING CNS DISORDERS” (priority 2017, published 2022).

What follows are molecules tested against TBPS binding (assay: Steroid inhibition of TBPS binding). Details: Table II-2; read-out: TBPS IC50 (μm).

| Structure (SMILES) | IC50 |
| --- | --- |
| Cc1nnnn1CC(=O)[C@H]1CC[C@H]2[C@@H]3CC[C@H]4CC[C@](C)(O)CC[C@]4(C)[C@H]3CC[C@]12C [II-C10, 1-((1S,3aS,3bR,5aS,8S,10aS,10bS,12aS)-8-hydroxy-8,10a,12a-trimethyloctadecahydrocyclohepta[a]cyclopenta[f]naphthalen-1-yl)-2-(5-methyl-1H-tetrazol-1-yl)ethan-1-one] | 100 to 1000 nM |
| Cc1nnn(CC(=O)[C@H]2CC[C@H]3[C@@H]4CC[C@H]5CC[C@](C)(O)CC[C@]5(C)[C@H]4CC[C@]23C)n1 [II-C11, 1-((1S,3aS,3bR,5aS,8S,10aS,10bS,12aS)-8-hydroxy-8,10a,12a-trimethyloctadecahydrocyclohepta[a]cyclopenta[f]naphthalen-1-yl)-2-(5-methyl-2H-tetrazol-2-yl)ethan-1-one] | 10 to 100 nM |
| CC(=O)[C@H]1CC[C@H]2[C@@H]3CC=C4C[C@](C)(O)CCC[C@]4(C)[C@H]3CC[C@]12C [II-D2a, 1-((1S,3aS,3bS,7R,10aR,10bS,12aS)-7-hydroxy-7,10a,12a-trimethyl-1,2,3,3a,3b,4,6,7,8,9,10,10a,10b,11,12,12a-hexadecahydrocyclohepta[a]cyclopenta[f]naphthalen-1-yl)ethan-1-one] | 1000 to 10000 nM |
| CC(=O)[C@H]1CC[C@H]2[C@@H]3CC[C@H]4C[C@](C)(O)CCC[C@]4(C)[C@H]3CC[C@]12C [II-D3a, 1-((1S,3aS,3bR,5aS,7R,10aS,10bS,12aS)-7-hydroxy-7,10a,12a-trimethyloctadecahydrocyclohepta[a]cyclopenta[f]naphthalen-1-yl)ethan-1-one] | 1000 to 10000 nM |
| C[C@@]1(O)CCC[C@@]2(C)[C@@H](CC[C@@H]3[C@@H]2CC[C@]2(C)[C@@H](C(=O)Cn4cc(C#N)cn4)CC[C@@H]32)C1 [II-D5a, 1-(2-((1S,3aS,3bR,5aS,7R,10aS,10bS,12aS)-7-hydroxy-7,10a,12a-trimethyloctadecahydrocyclohepta[a]cyclopenta[f]naphthalen-1-yl)-2-oxoethyl)-1H-pyrazole-4-carbonitrile] | 10 to 100 nM |
| C[C@]1(O)CCC[C@@]2(C)[C@@H](CC[C@@H]3[C@@H]2CC[C@]2(C)[C@@H](C(=O)Cn4cc(C#N)cn4)CC[C@@H]32)C1 [II-D5b, 1-(2-((1S,3aS,3bR,5aS,7S,10aS,10bS,12aS)-7-hydroxy-7,10a,12a-trimethyloctadecahydrocyclohepta[a]cyclopenta[f]naphthalen-1-yl)-2-oxoethyl)-1H-pyrazole-4-carbonitrile] | 100 to 1000 nM |
| CC(=O)[C@H]1CC[C@H]2[C@@H]3CC[C@@H]4CCC(=O)CC[C@@H]4[C@H]3CC[C@]12C [II-E7a, (1S,3aS,3bR,5aR,10aS,10bR,12aS)-1-acetyl-12a-methylhexadecahydrocyclohepta[a]cyclopenta[f]naphthalen-8(1H)-one] | 1000 to 10000 nM |
| CC(=O)[C@H]1CC[C@H]2[C@@H]3CC[C@@H]4CC(=O)CCC[C@@H]4[C@H]3CC[C@]12C [II-E7b, (1 S,3aS,3bR,5aR,10aS,10bR,12aS)-1-acetyl-12a-methylhexadecahydrocyclohepta[a]cyclopenta[f]naphthalen-7(1H)-one] | 1000 to 10000 nM |
| CC(=O)[C@H]1CC[C@H]2[C@@H]3CC[C@@H]4C[C@](C)(O)CCC[C@@H]4[C@H]3CC[C@]12C [II-E8a, 1-((1S,3aS,3bR,5aR,7R,10aS,10bR,12aS)-7-hydroxy-7,12a-dimethyloctadecahydrocyclohepta[a]cyclopenta[f]naphthalen-1-yl)ethan-1-one] | 10 to 100 nM |
| C[C@]1(O)CCC[C@H]2[C@H](CC[C@@H]3[C@@H]2CC[C@]2(C)[C@@H](C(=O)Cn4cc(C#N)cn4)CC[C@@H]32)C1 [II-E10, 1-(2-((1S,3aS,3bR,5aR,7S,10aS,10bR,12aS)-7-hydroxy-7,12a-dimethyloctadecahydrocyclohepta[a]cyclopenta[f]naphthalen-1-yl)-2-oxoethyl)-1H-pyrazole-4-carbonitrile] | 100 to 1000 nM |
| C[C@@]1(O)CCC[C@H]2[C@H](CC[C@@H]3[C@@H]2CC[C@]2(C)[C@@H](C(=O)Cn4cc(C#N)cn4)CC[C@@H]32)C1 [II-E10a, 1-(2-((1S,3aS,3bR,5aR,7R,10aS,10bR,12aS)-7-hydroxy-7,12a-dimethyloctadecahydrocyclohepta[a]cyclopenta[f]naphthalen-1-yl)-2-oxoethyl)-1H-pyrazole-4-carbonitrile] | 10 to 100 nM |
| C[C@]1(O)CCC2=CC[C@H]3[C@@H]4CC[C@H](C(=O)Cn5cc(C#N)cn5)[C@@]4(C)CC[C@@H]3[C@@]2(C)CC1 [II-F3, 1-(2-((1S,3aS,3bS,8S,10aR,10bS,12aS)-8-hydroxy-8,10a,12a-trimethyl-1,2,3,3a,3b,4,6,7,8,9,10,10a,10b,11,12,12a-hexadecahydrocyclohepta[a]cyclopenta[f]naphthalen-1-yl)-2-oxoethyl)-1H-pyrazole-4-carbonitrile] | < 10 nM |
| Cc1nnn(CC(=O)[C@H]2CC[C@H]3[C@@H]4CC=C5CC[C@](C)(O)CC[C@]5(C)[C@H]4CC[C@]23C)n1 [II-F6, 1-((1S,3aS,3bS,8S,10aR,10bS,12aS)-8-hydroxy-8,10a,12a-trimethyl-1,2,3,3a,3b,4,6,7,8,9,10,10a,10b,11,12,12a-hexadecahydrocyclohepta[a]cyclopenta[f]naphthalen-1-yl)-2-(5-methyl-2H-tetrazol-2-yl)ethan-1-one] | 10 to 100 nM |
| Cc1nnnn1CC(=O)[C@H]1CC[C@H]2[C@@H]3CC=C4CC[C@](C)(O)CC[C@]4(C)[C@H]3CC[C@]12C [II-F7, 1-((1S,3aS,3bS,8S,10aR,10bS,12aS)-8-hydroxy-8,10a,12a-trimethyl-1,2,3,3a,3b,4,6,7,8,9,10,10a,10b,11,12,12a-hexadecahydrocyclohepta[a]cyclopenta[f]naphthalen-1-yl)-2-(5-methyl-1H-tetrazol-1-yl)ethan-1-one] | 10 to 100 nM |
| CC(=O)[C@H]1CC[C@H]2[C@@H]3CC[C@@H]4CC[C@](C)(O)CC[C@@H]4[C@H]3CC[C@]12C [II-F8, 1-((1S,3aS,3bR,5aR,8S,10aS,10bR,12aS)-8-hydroxy-8,12a-dimethyloctadecahydrocyclohepta[a]cyclopenta[f]naphthalen-1-yl)ethan-1-one] | 100 to 1000 nM |
| C[C@]1(O)CC[C@H]2CC[C@@H]3[C@H](CC[C@]4(C)[C@@H](C(=O)Cn5cc(C#N)cn5)CC[C@@H]34)[C@H]2CC1 [II-F11, 1-(2-((1S,3aS,3bR,5aR,8S,10aS,10bR,12aS)-8-hydroxy-8,12a-dimethyloctadecahydrocyclohepta[a]cyclopenta[f]naphthalen-1-yl)-2-oxoethyl)-1H-pyrazole-4-carbonitrile] | 100 to 1000 nM |
| Cc1nnn(CC(=O)[C@H]2CC[C@H]3[C@@H]4CC[C@@H]5CC[C@](C)(O)CC[C@@H]5[C@H]4CC[C@]23C)n1 [II-F12, 1-((1S,3aS,3bR,5aR,8S,10aS,10bR,12aS)-8-hydroxy-8,12a-dimethyloctadecahydrocyclohepta[a]cyclopenta[f]naphthalen-1-yl)-2-(5-methyl-2H-tetrazol-2-yl)ethan-1-one] | 100 to 1000 nM |
| Cc1nnnn1CC(=O)[C@H]1CC[C@H]2[C@@H]3CC[C@@H]4CC[C@](C)(O)CC[C@@H]4[C@H]3CC[C@]12C [II-F13, 1-((1S,3aS,3bR,5aR,8S,10aS,10bR,12aS)-8-hydroxy-8,12a-dimethyloctadecahydrocyclohepta[a]cyclopenta[f]naphthalen-1-yl)-2-(5-methyl-1H-tetrazol-1-yl)ethan-1-one] | 1000 to 10000 nM |
| CC(=O)[C@H]1CC[C@H]2[C@@H]3CC[C@@H]4C[C@](C)(O)C[C@@H]4[C@H]3CC[C@]12C [II-G8, 1-((1S,3aS,3bR,5aR,7S,8aS,8bR,10aS)-7-hydroxy-7,10a-dimethylhexadecahydrodicyclopenta[a,f]naphthalen-1-yl)ethan-1-one] | 100 to 1000 nM |
| C[C@]1(O)C[C@H]2CC[C@@H]3[C@H](CC[C@]4(C)[C@@H](C(=O)Cn5cc(C#N)cn5)CC[C@@H]34)[C@H]2C1 [II-G10] | 100 to 1000 nM |
| C[C@]1(O)C[C@H]2CC[C@@H]3[C@H](CC[C@]4(C)[C@@H](C(=O)Cn5nccn5)CC[C@@H]34)[C@H]2C1 [II-G11, 1-((1S,3aS,3bR,5aR,7S,8aS,8bR,10aS)-7-hydroxy-7,10a-dimethylhexadecahydrodicyclopenta[a,f]naphthalen-1-yl)-2-(2H-1,2,3-triazol-2-yl)ethan-1-one] | 100 to 1000 nM |
| C[C@]1(O)C[C@H]2CC[C@@H]3[C@H](CC[C@]4(C)[C@@H](C(=O)Cn5ccnn5)CC[C@@H]34)[C@H]2C1 [II-G12, 1-((1S,3aS,3bR,5aR,7S,8aS,8bR,10aS)-7-hydroxy-7,10a-dimethylhexadecahydrodicyclopenta[a,f]naphthalen-1-yl)-2-(1H-1,2,3-triazol-1-yl)ethan-1-one] | 100 to 1000 nM |
| CC(=O)[C@H]1CC[C@H]2[C@@H]3CC[C@@H]4[C@H](CC[C@@]4(C)O)[C@H]3CC[C@]12C [II-H11, 1-((1S,3aS,3bR,5aR,6R,8aR,8bS,10aS)-6-hydroxy-6,10a-dimethylhexadecahydrodicyclopenta[a,f]naphthalen-1-yl)ethan-1-one] | 1000 to 10000 nM |
| C[C@]12CC[C@@H]3[C@H]4CC[C@@](C)(O)[C@@H]4CC[C@H]3[C@@H]1CC[C@@H]2C(=O)Cn1cc(C#N)cn1 [II-H13, 1-(2-((1S,3aS,3bR,5aR,6R,8aR,8bS,10aS)-6-hydroxy-6,10a-dimethylhexadecahydrodicyclopenta[a,f]naphthalen-1-yl)-2-oxoethyl)-1H-pyrazole-4-carbonitrile] | 1000 to 10000 nM |
| C[C@]12CC[C@@H]3[C@H]4CC[C@](C)(O)[C@@H]4CC[C@H]3[C@@H]1CC[C@@H]2C(=O)Cn1cc(C#N)cn1 [II-H19, 1-(2-((1S,3aS,3bR,5aR,6S,8aR,8bS,10aS)-6-hydroxy-6,10a-dimethylhexadecahydrodicyclopenta[a,f]naphthalen-1-yl)-2-oxoethyl)-1H-pyrazole-4-carbonitrile] | 1000 to 10000 nM |
